The target in the assay is T1, STAT6 (Homo sapiens, UniProt P42226).
T1 construct: endogenous in cells; host or cells: MOLM-16, KU-812, SKNO1, MB231, L1236
T1 sequence (P42226 1-847): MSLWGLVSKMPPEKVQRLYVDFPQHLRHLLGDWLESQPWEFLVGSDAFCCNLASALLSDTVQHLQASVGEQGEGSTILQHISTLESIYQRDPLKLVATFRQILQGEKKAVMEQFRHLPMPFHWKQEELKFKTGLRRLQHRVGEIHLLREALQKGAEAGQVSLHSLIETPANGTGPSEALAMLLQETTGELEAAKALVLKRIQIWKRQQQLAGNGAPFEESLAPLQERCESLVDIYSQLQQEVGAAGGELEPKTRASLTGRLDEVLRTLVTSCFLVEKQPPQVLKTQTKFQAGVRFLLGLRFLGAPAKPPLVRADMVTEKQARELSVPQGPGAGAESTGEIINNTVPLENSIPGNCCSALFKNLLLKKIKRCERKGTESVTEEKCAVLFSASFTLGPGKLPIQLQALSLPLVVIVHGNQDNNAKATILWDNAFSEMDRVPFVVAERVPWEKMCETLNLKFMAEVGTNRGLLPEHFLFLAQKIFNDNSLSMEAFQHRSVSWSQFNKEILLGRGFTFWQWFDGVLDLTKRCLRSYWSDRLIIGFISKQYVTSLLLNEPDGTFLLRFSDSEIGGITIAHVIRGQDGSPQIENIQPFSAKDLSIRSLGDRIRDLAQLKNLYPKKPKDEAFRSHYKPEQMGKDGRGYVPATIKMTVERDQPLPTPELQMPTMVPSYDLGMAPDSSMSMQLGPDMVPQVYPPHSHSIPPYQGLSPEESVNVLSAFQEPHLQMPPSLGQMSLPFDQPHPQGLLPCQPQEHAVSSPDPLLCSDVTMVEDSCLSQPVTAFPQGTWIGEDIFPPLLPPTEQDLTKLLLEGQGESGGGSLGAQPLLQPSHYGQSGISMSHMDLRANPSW
Put plainly: Immunoblotting (Western blot) analysis of STAT6 degradation efficiency of degraders in treated cells. The assay is classed as cell-based. Put shortly: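 About 1 million cells per point, grown in 10% FBS medium at 37 °C/5% CO2, were exposed to compound at the indicated concentrations and times, then lysed in RIPA buffer with protease and phosphatase inhibitors. Equal protein (20-40 μg) was resolved by SDS-PAGE, blotted to PVDF, and probed with anti-STAT5, anti-STAT6 and anti-GAPDH antibodies.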
For orientation: In western blotting, separated proteins are transferred to a membrane and probed.

Where [1] appears, read: MOLM-16 cells, class symbols, read-out: DC50 S6 MOLM-16.
The mark [2] stands for this setting: L1236 cells, read-out: DC50 S6 L1236.

The structures appear in SMILES notation. Read-outs that look alike come from different tables or passages of the source.

One may read the DC50 as the concentration at which degradation of the target reaches its halfway point.

As to `CC(C)(C)[C@H](NC(=O)c1cc2cc(C(F)(F)P(=O)(O)O)ccc2s1)C(=O)N1C[C@@H](OCC(=O)NCCCCCCCCC#Cc2ccc3c(c2)C(=O)N(C2CCC(=O)NC2=O)C3=O)C[C@H]1C(=O)N1CCC[C@H](c2ccccc2)C1` (stereo partly drawn) [Compound 504, ((2-(((2S)-1-((2S,4S)-4-(2-((10-(2-(2,6-dioxopiperidin-3-yl)-1,3-dioxoisoindolin-5-yl)dec-9-yn-1-yl)amino)-2-oxoethoxy)-2-((R)-3-phenylpiperidine-1-carbonyl)pyrrolidin-1-yl)-3,3-dimethyl-1-oxobutan-2-yl)carbamoyl)benzo[b]thiophen-5-yl)difluoromethyl)phosphonic acid], the half-maximal degradation concentration (DC50) under setting [1] is greater than 10 µM.
As for `CC(C)(C)[C@H](NC(=O)c1cc2cc(C(F)(F)P(=O)(O)O)ccc2s1)C(=O)N1C[C@@H](NC(=O)CCCC#Cc2ccc3c(c2)CN(C2CCC(=O)NC2=O)C3=O)C[C@H]1C(=O)N1CCO[C@H](c2ccccc2)C1` (stereo partly drawn) [Compound 588, ((2-(((2S)-1-((2S,4S)-4-(6-(2-(2,6-dioxopiperidin-3-yl)-1-oxoisoindolin-5-yl)hex-5-ynamido)-2-((R)-2-phenylmorpholine-4-carbonyl)pyrrolidin-1-yl)-3,3-dimethyl-1-oxobutan-2-yl)carbamoyl)benzo[b]thiophen-5-yl)difluoromethyl)phosphonic acid], the DC50 reads like this: under setting [2], greater than 10 µM; under setting [1], greater than 10 µM.
For the compound `CC(C)(C)[C@H](NC(=O)c1cc2cc(C(F)(F)P(=O)(O)O)ccc2s1)C(=O)N1Cc2cc(OCC(=O)NCCCCCC#Cc3ccc4c(c3)C(=O)N(C3CCC(=O)NC3=O)C4=O)ccc2C[C@H]1C(=O)N1CCC[C@H](c2ccccc2)C1` (stereo partly drawn) [Compound 558, ((2-(((2S)-1-((3S)-7-(2-((7-(2-(2,6-dioxopiperidin-3-yl)-1,3-dioxoisoindolin-5-yl)hept-6-yn-1-yl)amino)-2-oxoethoxy)-3-((R)-3-phenylpiperidine-1-carbonyl)-3,4-dihydroisoquinolin-2(1H)-yl)-3,3-dimethyl-1-oxobutan-2-yl)carbamoyl)benzo[b]thiophen-5-yl)difluoromethyl)phosphonic acid], the DC50 under setting [1] is greater than 10 µM.
On the same count and under the same terms, the result for `CC(C)(C)[C@H](NC(=O)c1cc2cc(C(F)(F)P(=O)(O)O)ccc2s1)C(=O)N1C[C@@H](OCCCCCCC#Cc2cccc3c2CN(C2CCC(=O)NC2=O)C3=O)C[C@H]1C(=O)N1CCS(=O)(=O)C(c2ccccc2)C1` (stereo partly drawn) [Compound 607, ((2-(((2S)-1-((2S,4S)-2-(1,1-dioxido-2-phenylthiomorpholine-4-carbonyl)-4-((8-(2-(2,6-dioxopiperidin-3-yl)-1-oxoisoindolin-4-yl)oct-7-yn-1-yl)oxy)pyrrolidin-1-yl)-3,3-dimethyl-1-oxobutan-2-yl)carbamoyl)benzo[b]thiophen-5-yl)difluoromethyl)phosphonic acid] reads less than 0.1 µM; that for `Cc1ncsc1-c1ccc([C@H](CC(=O)NCCCCCCC(=O)N[C@H]2C[C@@H](C(=O)N3CCO[C@H](c4ccccc4)C3)N(C(=O)[C@@H](NC(=O)c3cc4cc(C(F)(F)P(=O)(O)O)ccc4s3)C(C)(C)C)C2)NC(=O)[C@@H]2C[C@@H](O)CN2C(=O)[C@@H](NC(=O)C2(F)CC2)C(C)(C)C)cc1` [Compound 569, (difluoro(2-(((S)-1-((2S,4S)-4-(7-((S)-3-((2S,4R)-1-((S)-2-(1-fluorocyclopropane-1-carboxamido)-3,3-dimethylbutanoyl)-4-hydroxypyrrolidine-2-carboxamido)-3-(4-(4-methylthiazol-5-yl)phenyl)propanamido)heptanamido)-2-((R)-2-phenylmorpholine-4-carbonyl)pyrrolidin-1-yl)-3,3-dimethyl-1-oxobutan-2-yl)carbamoyl)benzo[b]thiophen-5-yl)methyl)phosphonic acid], greater than 10 µM.
Take `Cc1ncsc1-c1ccc([C@H](C)NC(=O)[C@@H]2C[C@@H](O)CN2C(=O)[C@@H](NC(=O)CCCCCCNC(=O)CO[C@H]2C[C@@H](C(=O)N3CCO[C@H](c4ccccc4)C3)N(C(=O)[C@@H](NC(=O)c3cc4cc(C(F)(F)P(=O)(O)O)ccc4s3)C(C)(C)C)C2)C(C)(C)C)cc1` [Compound 430, (difluoro(2-(((S)-1-((2S,4S)-4-(2-((7-(((S)-1-((2S,4R)-4-hydroxy-2-(((S)-1-(4-(4-methylthiazol-5-yl)phenyl)ethyl)carbamoyl)pyrrolidin-1-yl)-3,3-dimethyl-1-oxobutan-2-yl)amino)-7-oxoheptyl)amino)-2-oxoethoxy)-2-((R)-2-phenylmorpholine-4-carbonyl)pyrrolidin-1-yl)-3,3-dimethyl-1-oxobutan-2-yl)carbamoyl)benzo[b]thiophen-5-yl)methyl)phosphonic acid]: the 50% degradation concentration (DC50) under setting [2] was greater than 10 µM and the half-maximal degradation concentration (DC50) under setting [1] was greater than 10 µM.
Consider `CC(C)(C)[C@H](NC(=O)c1cc2cc(C(F)(F)P(=O)(O)O)ccc2s1)C(=O)N1CCN(C(=O)CC(=O)NCCCCCC#Cc2cccc3c2C(=O)N(C2CCC(=O)NC2=O)C3=O)C[C@H]1C(=O)N1CCC[C@H](c2ccccc2)C1` (stereo partly drawn) [Compound 529, ((2-(((2S)-1-((2S)-4-(3-((7-(2-(2,6-dioxopiperidin-3-yl)-1,3-dioxoisoindolin-4-yl)hept-6-yn-1-yl)amino)-3-oxopropanoyl)-2-((R)-3-phenylpiperidine-1-carbonyl)piperazin-1-yl)-3,3-dimethyl-1-oxobutan-2-yl)carbamoyl)benzo[b]thiophen-5-yl)difluoromethyl)phosphonic acid], for which the 50% degradation concentration (DC50) under setting [1] is greater than 10 µM.
For `CC(C)(C)c1ccc(C[C@H](NC(=O)c2cc3cc(C(F)(F)P(=O)(O)O)ccc3s2)C(=O)N2C[C@@H](OCCCCCC(=O)N3Cc4cc5c(cc4C3)C(=O)N(C3CCC(=O)NC3=O)C5)C[C@H]2C(=O)N2CCO[C@H](c3ccccc3)C2)cc1` (stereo partly drawn) [Compound 591, ((2-(((2S)-3-(4-(tert-butyl)phenyl)-1-((2S,4S)-4-((6-(6-(2,6-dioxopiperidin-3-yl)-5-oxo-3,5,6,7-tetrahydropyrrolo[3,4-f]isoindol-2(1H)-yl)-6-oxohexyl)oxy)-2-((R)-2-phenylmorpholine-4-carbonyl)pyrrolidin-1-yl)-1-oxopropan-2-yl)carbamoyl)benzo[b]thiophen-5-yl)difluoromethyl)phosphonic acid], the DC50 under setting [1] was greater than 10 µM.
Consider `CC(C)(C)[C@H](NC(=O)c1cc2cc(C(F)(F)P(=O)(O)O)ccc2s1)C(=O)N1CCN(C(=O)CC(=O)NCCCC#Cc2ccc3c(c2)C(=O)N(C2CCC(=O)NC2=O)C3=O)C[C@H]1C(=O)N1CCC[C@H](c2ccccc2)C1` (stereo partly drawn) [Compound 526, ((2-(((2S)-1-((2S)-4-(3-((5-(2-(2,6-dioxopiperidin-3-yl)-1,3-dioxoisoindolin-5-yl)pent-4-yn-1-yl)amino)-3-oxopropanoyl)-2-((R)-3-phenylpiperidine-1-carbonyl)piperazin-1-yl)-3,3-dimethyl-1-oxobutan-2-yl)carbamoyl)benzo[b]thiophen-5-yl)difluoromethyl)phosphonic acid], for which the DC50 under setting [1] is greater than 10 µM.
As for `CC(C)(C)[C@H](NC(=O)c1cc2cc(C(F)(F)P(=O)(O)O)ccc2s1)C(=O)N1C[C@@H](OCC(=O)NCCC#Cc2ccc3c(c2)C(=O)N(C2CCC(=O)NC2=O)C3=O)C[C@H]1C(=O)N1CCO[C@H](c2ccccc2)C1` (stereo partly drawn) [Compound 482, ((2-(((2S)-1-((2S,4S)-4-(2-((4-(2-(2,6-dioxopiperidin-3-yl)-1,3-dioxoisoindolin-5-yl)but-3-yn-1-yl)amino)-2-oxoethoxy)-2-((R)-2-phenylmorpholine-4-carbonyl)pyrrolidin-1-yl)-3,3-dimethyl-1-oxobutan-2-yl)carbamoyl)benzo[b]thiophen-5-yl)difluoromethyl)phosphonic acid], under setting [1], the half-maximal degradation concentration (DC50) is greater than 10 µM.

Source of the values: patent publication US20230295197A1, “STAT5 and STAT6 Degraders and Uses Thereof” (REGENTS OF THE UNIVERSITY OF MICHICAN, priority 2022, published 2023).
